# Measured values published in US12564639B2, “Cationic nanostructures for intra-cartilage delivery of contrast agents and diagnostic uses thereof” (Northeastern University, priority 2019, dated 2026).
# Legend:
# [1] = Equilibrium uptake in cartilage explants (uptake ratio Ru); conditions: 50% GAG depleted cartilage (mid-stage OA)
# Protocol: Cartilage explants were harvested from the femoropatellar groove of 2-3-week-old bovine knees (Research 87, Boylston, MA) with a 3 mm diameter biopsy punch. The cylindrical plugs were then sliced to obtain the superficial 1 mm layer of cartilage, and frozen until use. […] Cartilage disks were equilibrated in 300 μL of 8.5 μM of labeled Avidin, 1:2 mAv or 1:4 mAv in presence of protease inhibitors for 24 h in a 96-well plate at 37° C. on gentle shaking to prevent formation of stagnant layers. To minimize evaporation, the empty wells in the plate were filled with DI water and the plate was wrapped in parafilm. At the end of the experiment, the surfaces of each disk were quickly blotted with Kimwipes and the wet weight was measured. The equilibrium bath fluorescence was measured using a plate reader (Synergy H1, Biotek). The final concentration was calculated based on a linear calibration correlating fluorescence to concentration of labeled Avidin. The moles of solutes absorbed into the cartilage were calculated using the difference between the initial and equilibrium concentration of the bath. The concentration of solutes inside was calculated by normalizing the number of moles inside cartilage to the wet weight of the tissue. The uptake ratio (Ru) was defined as the ratio of the concentration of solutes inside the tissue (Ctissue) to that of the solute in the equilibrium bath (Cbath). […]
# [2] = Zeta potential (Zetasizer Nano-ZS90); format: physicochemical; conditions: for Zeta potential (ζ): nanopure water, 0.45 mg/mL, Mean ± SD
# Source text: • 1. Use the procedure in Section F to conjugate 4 moles of biotin-PEG-IOX with Avidin at its biotin binding sites to synthesize mAv-IOX. • 2. Use Zetasizer Nano-ZS90 to detect the zeta potential of unmodified Avidin and mAv-IOX in DI water; the zeta potential (Q, mV) of Avidin and mAv-IOX should be around 18.3±0.5 mV and 8.69±0.7 mV, respectively. • 3. Obtain 3 mm diameter×1 mm height cylindrical cartilage discs with intact superficial zone (SZ) from femoropatellar grooves of 1-2-week-old bovine knee joints and freeze them in PBS containing protease inhibitors (PI) until further use. • 4. […] Use a freezing point osmometer to balance the osmolality of these contrast agent solutions to 400±20 mOsm/kg by adding 1 M sodium chloride solution dropwise. • 5. […] Secure cartilage explants using low X-ray-absorption foam inside a 20.5 mm CT scan tube. Ensure that the cartilage explant stays secured in the foam during CT imaging. • 7. Take one of the equilibrated cartilage explants from contrast agent solution and gently using Kimwipes to remove solution from the tissue surface. • 8. Set CT35 with an isotropic voxel resolution of 10 μm, 70 kVp tube voltage, 113 μA current, and 200 ms integration time method. The CT data will be saved as DICOM format. ImageJ software will automatically display Hounsfield Unit (HU) by importing DICOM images. • 9. Process the CT imaging data acquired from CT35 using ImageJ software: (i) Go to Image→Stacks→Images to Stack to convert CT imaging data to a cartilage stack. (ii) Go to Image→Stacks→Reslice and select ‘starting at top’ to acquire a new stack showing vertical section of cartilage from superficial zone (SZ) to deep zone (DZ). […] The GAG content (mg/mg wet weight) is calculated as: […]
# PEGylation of Avidin in 1:2 and 1:4 mAv was further confirmed by using H-Class Acquity UPLC (Waters Corp, Milford, MA) equipped with an Acquity UPLC BEH200 Size Exclusion Column (200 Å, 1.7 μm column, 4.6×300 mm) with 20 mM ammonium bicarbonate buffer as the mobile phase at 0.2 mL/min. Avidin was detected at 280 nm. […]
# [3] = Hydrodynamic diameter estimated from molecular weight (Stokes-Einstein equation); format: physicochemical
# Source text: As such, its intra-cartilage transport diffusivities (estimated using setup in FIG. 3A) were not affected either (Table 1). The hydrodynamic diameter of Avidin and mAv was estimated from their molecular weights using the Stokes-Einstein equation. The net size of mAv was within the 10 nm limit enabling it to penetrate through the full thickness of cartilage similar to unmodified Avidin.
# [4] = rabbit, in vivo; cited from earlier work
# [5] = tested on: bovine cartilage explants; conditions: cited from earlier work
# [6] = Intra-cartilage diffusion kinetics (non-equilibrium one-dimensional diffusion, transport chamber); conditions: 3 μM upstream, 400-600 μm cartilage disk; Mean ± SD
# Protocol: The interior walls of the transport chamber were equilibrated in 0.5% nonfat-dried bovine milk solution in PBS for 15 min to lessen non-specific binding of solutes to inner walls of the transport chamber. Subsequently, the compartments of chamber were rinsed with DI water. 3 μM solution of labeled Avidin or mAv was added to the upstream chamber. A 6 mm diameter cartilage disk of 400-600 μm thickness was placed between the upstream and downstream compartments. Concentration of fluorescently labeled solutes in the downstream chamber was measured over time by exciting the downstream solution using a 480 nm laser line and detecting the emission. Non-equilibrium diffusion curves were thereby obtained by plotting normalized downstream concentration (CD) to upstream concentration (Cu) over time. Effective Diffusivity (DEFF), which is the diffusivity of solutes in cartilage while binding interactions exist within the tissue was estimated as follows:
# [formula] where L corresponds to cartilage thickness, and τLag is the time it takes to reach a steady state flux. τLag was estimated using the time-axis intercept of the linear slope of the normalized concentration versus time.
# [7] = IA 40 mg every 3 months for 2 years; cited from earlier work
# chondrocytes = conditions: incubation with chondrocytes in culture; cited from earlier work
# [8] = tested on: IL-1α treated cartilage explants; assay: IL-1α treated cartilage explant culture OA model: GAG loss (DMMB assay); format: cell-based, bovine; conditions: 16-day culture
# Source text: Tissue explants for all treatment conditions were matched for depth and location to prevent any bias. […] Note that mAv here refers to 1:4 mAv configuration. Media was changed every 2 days and IL-1α was replenished at each medium change. […] IL-1α concentration was chosen as it represents a moderately aggressive cytokine treatment. […] After 16 days of culture, cartilage explants were weighed and digested in proteinase K. The cumulative GAGs released to the media and residual GAGs in the digested explants were measured using the DMMB assay. Nitrite content was measured using the Griess assay as an indicator of nitric oxide (NO) release from tissues. Equal volumes of Griess reagent and culture media collected every two days were mixed and incubated at room temperature for 15 min, and absorbance at 540 nm was measured using a plate reader. Sodium nitrite was used as a standard.
# [9] = tested on: IL-1α treated cartilage explants; assay: IL-1α treated cartilage explant culture OA model: nitrite release (Griess assay); format: cell-based, bovine; conditions: continuous dose 100 nM, Day 8
# Protocol: 3 mm diameter cartilage explants harvested from calf knee joints were equilibrated separately in serum free culture media containing 96.2% low-glucose DMEM, 1.0% HEPES, 1.0% NEAA, 1.0% PSA, 0.4% proline and 0.4% ascorbic acid for 48 h at 37° C., 5% CO2 for 2 days prior to treatment. Tissue explants for all treatment conditions were matched for depth and location to prevent any bias. To test the biological effectiveness of mAv-Dex, equilibrated cartilage explants were treated with or without IL-1α (2 ng/mL) for 16 days in combination with (i) a single dose of 100 nM free Dex, (ii) a continuous dose of 100 nM free Dex, (iii) a single dose of 10 μM free Dex (iv) a single dose of fast release mAv-Dex (10 μM Dex) or (v) a single dose of controlled release mAv-Dex (2:1:1) (10 μM Dex). […]
# After 16 days of culture, cartilage explants were weighed and digested in proteinase K. The cumulative GAGs released to the media and residual GAGs in the digested explants were measured using the DMMB assay. Nitrite content was measured using the Griess assay as an indicator of nitric oxide (NO) release from tissues. Equal volumes of Griess reagent and culture media collected every two days were mixed and incubated at room temperature for 15 min, and absorbance at 540 nm was measured using a plate reader. […]
# [10] = multiple IA injections, 2.5 mg every 3 days or 0.5 mg/kg; cited from earlier work
# [11] = tested on: IL-1α treated cartilage explants; assay: IL-1α treated cartilage explant culture OA model: Safranin-O histology; format: cell-based, bovine; conditions: 16 days
# Protocol: (§1) 3 mm diameter cartilage explants harvested from calf knee joints were equilibrated separately in serum free culture media containing 96.2% low-glucose DMEM, 1.0% HEPES, 1.0% NEAA, 1.0% PSA, 0.4% proline and 0.4% ascorbic acid for 48 h at 37° C., 5% CO2 for 2 days prior to treatment. Tissue explants for all treatment conditions were matched for depth and location to prevent any bias. To test the biological effectiveness of mAv-Dex, equilibrated cartilage explants were treated with or without IL-1α (2 ng/mL) for 16 days in combination with (i) a single dose of 100 nM free Dex, (ii) a continuous dose of 100 nM free Dex, (iii) a single dose of 10 μM free Dex (iv) a single dose of fast release mAv-Dex (10 μM Dex) or (v) a single dose of controlled release mAv-Dex (2:1:1) (10 μM Dex). To evaluate the effect of mAv carrier alone on cartilage health, a high one-time dose of 10 μM mAv, which is 10× higher than that used to deliver 10 μM Dex in condition (v) above, was also tested in the absence of IL-1α. Note that mAv here refers to 1:4 mAv configuration. Media was changed every 2 days and IL-1α was replenished at each medium change. […] IL-1α concentration was chosen as it represents a moderately aggressive cytokine treatment.
# Cartilage explants were fixed in 4% formalin, embedded in 0.75% agarose for ease of handling, dehydrated in a graded series of ethanol and xylenes, and embedded in paraffin. Transverse sections (to obtain full thickness cartilage slices with superficial and deep zones) were taken at 5 μm thickness. These sections were stained with 0.5% Safranin O, 0.02% Fast Green and Weigert's iron hematoxylin for GAG detection. Adjacent sections underwent antigen retrieval using 0.1% hyaluronidase, 0.1% pronase in PBS for 30 min at 37° C., then were immunostained for type II collagen using 1 μg/mL mouse IgG1 (clone II-II6B3) or normal mouse IgG1 as isotype control. Antibody detection was performed using a VectaStain Elite ABC kit with 3,3-diaminobenzidine staining. Stained sections were imaged using a Zeiss Axioplan2 equipped with an AxioCam HRc camera.
# [12] = tested on: chondrocytes in cartilage explants; assay: IL-1α treated cartilage explant culture OA model: chondrocyte viability (FDA/PI); format: cell-based; conditions: Day 16
# Protocol: as §1
# Chondrocyte viability was analyzed by staining cartilage explants with FDA (4.0 mg/mL) and PI (10.0 mg/mL) for live (green) and dead (red) cells, respectively. Slices were washed with PBS and imaged at 4× magnification (Nikon Eclipse Ts2R). The live and dead images were overlaid using ImageJ. At the end of the culture, tissue explants were incubated with media containing 1× resazurin sodium salt (alamarBlue assay) for 3 h in dark at 37° C. and 5% CO2. Cell metabolic activity was estimated by measuring fluorescence at 530 nm excitation and 590 nm emission wavelengths.
# [13] = tested on: chondrocytes in cartilage explants; assay: IL-1α treated cartilage explant culture OA model: chondrocyte metabolism (alamarBlue); format: cell-based; conditions: Day 16
# Protocol: 3 mm diameter cartilage explants harvested from calf knee joints were equilibrated separately in serum free culture media containing 96.2% low-glucose DMEM, 1.0% HEPES, 1.0% NEAA, 1.0% PSA, 0.4% proline and 0.4% ascorbic acid for 48 h at 37° C., 5% CO2 for 2 days prior to treatment. Tissue explants for all treatment conditions were matched for depth and location to prevent any bias. To test the biological effectiveness of mAv-Dex, equilibrated cartilage explants were treated with or without IL-1α (2 ng/mL) for 16 days in combination with (i) a single dose of 100 nM free Dex, (ii) a continuous dose of 100 nM free Dex, (iii) a single dose of 10 μM free Dex (iv) a single dose of fast release mAv-Dex (10 μM Dex) or (v) a single dose of controlled release mAv-Dex (2:1:1) (10 μM Dex). To evaluate the effect of mAv carrier alone on cartilage health, a high one-time dose of 10 μM mAv, which is 10× higher than that used to deliver 10 μM Dex in condition (v) above, was also tested in the absence of IL-1α. Note that mAv here refers to 1:4 mAv configuration. […]
# Chondrocyte viability was analyzed by staining cartilage explants with FDA (4.0 mg/mL) and PI (10.0 mg/mL) for live (green) and dead (red) cells, respectively. […] Cell metabolic activity was estimated by measuring fluorescence at 530 nm excitation and 590 nm emission wavelengths.
# [14] = one week following ACLT, read at 3 weeks, vs free Dex; cited from earlier work
compound,measurement,setting,value
Avidin: cationic glycoprotein with four biotin binding sites,drop of uptake following 50% GAG depletion compared to healthy condition,[1],13.2 ×
same,zeta potential,"[2]; in DI water, 'should be around'",around 18.3±0.5 mV
same,Zeta potential (ζ),[2],18.3 ± 0.5 mV
same,Diameter (net size),[3],~7.0 nm
same,intra-cartilage uptake ratio,[4],180
same,presence in cartilage after IA administration,[4],present through the full thickness of cartilage two weeks following its IA administration
same,"Avidin dose shown not to affect GAG loss, chondrocyte viability or biosynthesis rates",[5],less than 100 μM
same,intra-cartilage effective diffusivity DEFF,[6],8.4 ± 2.0 × 10^−8 cm^2/s
"CC1(C)O[C@@H]2C[C@H]3[C@@H]4CCC5=CC(=O)C=C[C@]5(C)[C@@]4(F)[C@@H](O)C[C@]3(C)[C@]2(C(=O)CO)O1 [TCA, triamcinolone acetonide]",cartilage loss,[7],greater cartilage loss compared to saline
RRAAAARRAAAARRAAAARR [CPC+8],uptake by chondrocytes,chondrocytes,not uptaken by the chondrocytes
"C[C@@H]1C[C@H]2[C@@H]3CCC4=CC(=O)C=C[C@]4(C)[C@@]3(F)[C@@H](O)C[C@]2(C)[C@@]1(O)C(=O)CO [Dex, dexamethasone]",suppression of IL-1α induced GAG loss,[8]; continuous dose 100 nM,effectively suppress IL-1α induced GAG loss
same,suppression of IL-1α induced GAG loss,[8]; single dose 100 nM,not effective
same,suppression of IL-1α induced GAG loss,[8]; single dose 10 μM Dex,significantly suppressed IL-1α induced GAG loss
same,lower nitrite levels compared to single dose of 100 nM Dex,[9],3.5 ×
same,inflammation and cartilage protection,[10],significantly reduce inflammation and protect cartilage
same,toxicity of high multi-dose regimen,[10],systemic toxicity in vital organs
same,Safranin-O GAG staining,[11]; continuous dose 100 nM,mostly rescued
same,Safranin-O GAG staining,[11]; single dose 100 nM,marginally affected
same,Safranin-O GAG staining,[11]; single dose 10 μM Dex,protected GAG content to a greater extent than at 100 nM
same,rescue of chondrocyte viability,[12]; continuous dose 100 nM,rescued effectively
same,rescue of chondrocyte viability,[12]; single dose 100 nM,not with a single dose
same,rescue of chondrocyte viability,"[12]; single dose 10 μM Dex, listed as free Dex",not as effective
same,rescue of IL-1α reduced cell metabolism rates,[13],not rescued
1:2 mAv: multi-arm Avidin containing two biotinylated 8-arm PEGs,Zeta potential (ζ),[2],20.3 ± 0.3 mV
same,Diameter (net size),[3],~7.6 nm
Av-Dex: Avidin covalently conjugated with 4 moles of Dexamethasone using its four biotin binding sites,efficacy of single low dose IA injection,[14],"suppressed injury induced joint inflammation, synovitis, incidence of osteophyte formation and restored trabecular properties at 3 weeks significantly greater than free Dex"
